The text below walks through data of EP0497988A1, “ANTIVIRAL AGENT” (DAINIPPON INK AND CHEMICALS, INC., priority 1990, dated 1992).

Converted amounts (≈) assume the structure as drawn.

A short description of series [1]: Cell toxicity to mock-infected MT-4 cells by MTT method. Format: cell-based. The following applies: human, 5 days, read-out: CC₅₀. On the procedure: (§1) Test Method: MMT (the tetrazolium assay) method Cell: MT-4 Cell Virus: HTLV-IIIB (Infection : 3 x 10⁵ plaque forming units (PFU)/ml) MT-4 cells were suspended in a culture medium at 2 x 10⁵ cells/ml and infected with HIV-IIIB at a multiplicity of infection of 0.01. Immediately after infection, 100µl of cell suspension was placed into microtiter tray wells containing various concentrations of the test samples. At the same time, the mock-infected cells were also cultured together with the samples in order to assess the cell toxicity of the test samples to the MT-4 cell. They were cultured in a CO₂-gas incubator at 37°C for 5 days, and the number of viable cells were determined by the MTT method. Antiviral activity is expressed by EC₅₀ (50% effective concentration), the concentration at which the agent protects 50% of the cells from injury by HIV infection, and cell toxicity by CC₅₀ (50% cell toxicity concentration), the concentration at which 50% of the cells are injured by the agent. Selectivity is measured by a selectivity index (S.I), which is expressed by CC₅₀/EC₅₀ (R. Pauwels, et al., J. of […], vol. 20, 1988, pp. 309-321).
In general terms: Formazan colour is commonly taken as a measure of viable cells.

The subject of series [2] is HTLV-IIIB. Put plainly: Anti-HIV activity by MTT (tetrazolium) method in MT-4 cells. Format: cell-based. The following applies: for EC₅₀: MT-4 cells infected with HTLV-IIIB, MOI 0.01, 5 days, MTT. On the procedure:
as §1

Series [3] has as its system MT-4 Cell. Put plainly: Cell toxicity to mock-infected MT-4 cells by MTT method. Format: cell-based. The following applies: 5 days. On the procedure: as §1
Series [4] concerns HIV. Put plainly: Expression of virus-specific antigen in HIV-infected MT-4 cells (indirect fluorescent antibody method).
Experimental: (§2) The anti-HIV activity of each sample was evaluated by the HIV-induced cytopathic effect (CPE) and the expression of the virus-specific antigen.
Series [5] deals with HIV. Put plainly: HIV-induced cytopathic effect: viable count of HIV-infected MT-4 cells (trypan blue exclusion). Background: Damage to the host cells serves as the signal in cytopathic effect assays.
Experimental: as §2
The subject of series [6] is MT-4 Cell. The series is described as follows: Viable count of mock-infected MT-4 cells cultured with sample (trypan blue exclusion). Format: cell-based. The procedure:
Samples: MPS-1, MPS-2, MPS-3 and LPS-1 Cell and Virus: MT-4 Cell, MOLT-4 Cell HTLV as one HIV strain was prepared from the supernatant of the HIV-infected cells. The titer for the virus preparation (6 x 10⁵ plaque formation units/ml) was measured by the plaque assay method using MT-4 cells.
The MT-4 cells were mixed with HIV at 0.002MOI (multiplicity of infection), to be cultured at 37°C for 60 min. The virus-absorbing cells were washed and adjusted at 3 x 10⁵ cells/ml (the culture medium was RPMI1640 which supplemented with 10% heat-inactivated fetal calf serum and antibiotic). The suspension of the infected cells was cultured in the presence of the sample, and then cultured in a CO₂-containing atmosphere for 3 days. Then, the medium was replaced with the one containing the same quantity of the sample. Percentages of the viable cells and virus antigen positive cells were counted by the trypan blue exclusion method and indirect fluorescent antibody (IF) methods, respectively.
The test results are given in Tables 1 through 8, where the units for concentration, mock-infected cell count, infected cell count, percentage of HIV-antigen positive cell are µg/ml, x 10⁴cells/ml, and x 10⁴cells/ml, %, respectively.

Setting [7] is: 3rd day, concentration 25 µg/ml.
[8] abbreviates: 3rd day, concentration 50 µg/ml.
The mark [9] stands for this setting: 3rd day, concentration 100 µg/ml.
The mark [10] stands for this setting: 3rd day, concentration 200 µg/ml.
[11] abbreviates: 3rd day, concentration 500 µg/ml.
Setting [12] is: 6th day, concentration 25 µg/ml.
The mark [13] stands for this setting: 6th day, concentration 50 µg/ml.
The mark [14] stands for this setting: 6th day, concentration 100 µg/ml.
Where [15] appears, read: 6th day, concentration 200 µg/ml.

As for `Cc1cn([C@H]2C[C@H](N=[N+]=[N-])[C@@H](CO)O2)c(=O)[nH]c1=O` [AZT, 3'-azide-3'-deoxythymidine, reference compound], the CC50 at 120 h in series [1] amounted to 3.06 µg/mL (≈ 11.5 µM). For the same compound, the EC50 in series [2] (Human immunodeficiency virus 1, IIIB, MT4, 120 h, read-out: EC₅₀) worked out at 0.0019 µg/mL (≈ 0.00711 µM).

As to “sodium salt of dodecyl 4-galactosyl β-D-lactoside sulfate [GTS-1]”, the EC₅₀ in series [2] was 9.8 µg/mL.

Regarding “sodium salt of dodecyl 4-galactosyl-β-D-lactoside sulfate [GTS-2]”, the CC₅₀ in series [3] is 858 µg/mL. The compound also gave an EC₅₀ in series [2] of 8.6 µg/mL.

In turn, “sodium salt of dodecyl maltohexaoside sulfate [MHS-2]” yielded a CC₅₀ in series [3] of over 1000 µg/mL. This compound also registered an EC₅₀ in series [2] of 3.91 µg/mL.

With “sodium salt of dodecyl β-D-laminaripentaoside sulfate [LPS-1-1]”, the CC₅₀ in series [3] was over 1000 µg/mL. The compound further returned an EC₅₀ in series [2] of 0.68 µg/mL.

With “sodium salt of n-decyl β-laminaripentaoside sulfate [LPS-3]”, the EC₅₀ entry in series [2] is “= 67 µg/ml”.

For the compound “sodium salt of n-hexadecyl β-laminaripentaoside sulfate [LPS-2]”, the EC₅₀ result in series [2] is recorded as “= 17 µg/ml”.

On to “sodium salt of octadecyl maltoheptaoside sulfate [MHS-1]”, for which the CC₅₀ in series [3] turned out to be 355 µg/mL. For the same compound, the EC₅₀ in series [2] is listed as 2) > 40 µg/ml.

As to “sodium salt of octadecyl maltohexaoside sulfate [MHS-3]”, in series [3], the CC₅₀ turned out to be 580 µg/mL. Moreover, the EC₅₀ in series [2] stood at 10.36 µg/mL.

Turning to “sodium salt of octadecyl maltotrioside sulfate [MTS-1]”, the CC₅₀ in series [3] turned out to be 329 µg/mL. Further, the EC₅₀ in series [2] is 1) > 40 µg/ml.

“sodium salt of sulfated dodecyl β-D-laminarpentaoside [LPS-1]”: the “Percentage of HIV-antigen positive cell” value in series [4] (setting [7]) is 3%; in series [4] (setting [8]), under 1%; in series [4] (setting [9]) it was under 1%; in series [4] (setting [10]), under 1%; in series [4] (setting [11]) it was under 1%; in series [4] (setting [12]) it was 20%. Besides, the “Percentage of HIV-antigen positive cell” value in series [4] (setting [13]) is recorded as under 1%; in series [4] (setting [14]), 0%; in series [4] (setting [15]), 0%. Also, the HIV-infected cell count is given as 133 x 10⁴cells/ml in series [5] (setting [7]); 128 x 10⁴cells/ml in series [5] (setting [8]); 130 x 10⁴cells/ml in series [5] (setting [9]); 88 x 10⁴cells/ml in series [5] (setting [12]); 150 x 10⁴cells/ml in series [5] (setting [13]); 107 x 10⁴cells/ml in series [5] (setting [14]). The Mock-infected cell count in series [6] (setting [7]) is recorded as 151 x 10⁴cells/ml; in series [6] (setting [8]) it was 149 x 10⁴cells/ml; in series [6] (setting [9]), 136 x 10⁴cells/ml; in series [6] (setting [10]), 120 x 10⁴cells/ml; in series [6] (setting [11]) it was 79 x 10⁴cells/ml; in series [6] (setting [12]), 145 x 10⁴cells/ml. Moreover, the Mock-infected cell count in series [6] (setting [13]) was determined as 149 x 10⁴cells/ml; in series [6] (setting [14]) it was 140 x 10⁴cells/ml; in series [6] (setting [15]) it was 124 x 10⁴cells/ml.
